According to article PMC8312610, “F4, a collagen XIX-derived peptide, inhibits tumor angiogenesis through αvβ3 and α5β1 integrin interaction” (Cell Adhesion & Migration, 2021):
Positions of bridges follow the written chain, without caps; N, C: chain ends. No end group written: not given here.

Assays:
melanoma cell = conditions: cited from earlier work
Source text: (§1) The aim of the present work was to study the anti-angiogenic properties of F4 peptide. […] By affinity chromatography, we identified αvβ3 and α5β1 integrins as potential receptors for F4 peptide on endothelial cell surface. Using solid phase assays, ... || Type XIX collagen, that belongs to the FACIT family (Fibril-Associated Collagens with Interrupted Triple helices), is a minor collagen associated to the basement membrane zone.

mouse melanoma model = conditions: previously demonstrated by the authors, no ref in abstract; cited from earlier work
Source text: as §1

HUVEC = test: Capillary (pseudo-)tube formation on Matrigel; type: cell-based, human
Protocol: Figure 2. NC1(XIX) and F4 inhibit endothelial cell in vitro pseudotube formation. 50,000 HUVEC were seeded in Matrigel coated well of a 48 well-plate and incubated with or without 40 μM NC1(XIX) or F4. Pseudotube formation was observed and photographed under an inverted microscope after 8 hours (a). The number of segments, of nodes and the total length of pseudotubes were quantified by the ImageJ software, using the Angiogenesis Analyzer tool (b). The values are the means ± SD (n = 8 replicates). *** p < 0.001). The experiment was repeated three times (N = 3)
Human Umbilical Vein Endothelial Cells (HUVEC) (Ref C-12253) were purchased from Promocell. They were grown in Endothelial Cell Growth Medium (ECGM) (Promocell, Ref C-22110: Basal medium supplemented with 0.02 mL/mL Fetal Calf Serum, 0.004 mL/mL Endothelial Cell Growth Supplement, 0.1 ng/mL Epidermal Growth Factor (recombinant human), 1 ng/mL Basic Fibroblast Growth Factor (recombinant human), 90 μg/mL Heparin, 1 μg/mL Hydrocortisone) at +37°C in a humid atmosphere containing 5% CO2. PromoCell Detach Kit was used for the detachment of HUVEC according to the manufacturer’s protocols (Promocell, ref C-41200).
The ability of HUVEC to form pseudo-tubes was investigated on Matrigel (Corning, ref 356237). Matrigel was loaded into 48-well plate and allowed to polymerize at +37°C for 2 h. 50,000 HUVEC suspended in Basal media supplemented with 0.004 mL/mL Endothelial Cell Growth Supplement, 90 μg/mL Heparin, 1 μg/mL Hydrocortisone with or without 40 μM NC1(XIX) or F4 were seeded into each well. Plates were incubated at +37°C in a humid atmosphere containing 5% CO2, 95% for 8 h. The formation of the capillary network was then imaged under an inverted light microscope. Quantitative evaluation of the capillary network was performed using the angiogenesis analyzer tool of ImageJ analysis software. The number of nodes, of segments and the total length of the capillary network were determined.

α5β1 integrin = test: Solid phase competition assay with biotinylated-F4, α5β1; type: binding, human; conditions: unlabeled F4, molar ratio 1/0 to 1/125, integrin coated at 26 × 10^−7 mol/L, 90 min, room temperature, N = 2
Source text: Figure 5. F4 directly binds to αvβ3 and α5β1 integrins. Direct interaction between αvβ3 or α5β1 integrin and F4 was studied using solid phase assays as described in the material and method section. The F4 peptide was biotinylated to allow its detection using the streptavidin-peroxidase complex. Different conditions were used. (a-b) The amounts of coated αvβ3 (a) or α5β1 integrin (b) were increased while biotinylated F4 peptide was kept constant. (c-d) The concentration of biotinylated F4 peptide was increased while coated amounts of αvβ3 (c) or α5β1 (d) integrins were kept constant. (e-f) Competitive assays were performed using increasing concentrations of F4 peptide while biotinylated-F4 peptide and αvβ3 (e) or α5β1 (f) integrins were kept constant. The solid phase assays were repeated twice (N = 2; n = 2)
Wells of a 96-well plate were coated with α5β1 (ref. 3230-A5-050, R&D systems) and/or αvβ3 integrin (ref. 3050-AV-050, R&D systems) at different concentrations ranging from 26 × 10^−7 mol/L to 0.1 × 10^−7 mol/L (100 μL per well in PBS). The 96-well plate was left overnight at room temperature. The coating was then blocked with TBS containing 5% nonfat dry milk, 1 mM MgCl2 and 1 mM CaCl2 for 2 h at room temperature. […] The intensity of the yellow coloration was measured at 450 nm with an LB940 spectrophotometer (Berthold Technologies). […]

[1] = 40 µM, 8 h, 50,000 HUVEC on Matrigel, ImageJ Angiogenesis Analyzer, p < 0.001 for NC1(XIX) and F4, n = 8, N = 3

For “CNPEDCLYPVSHAHQR (disulfide 1-6 (inferred)) [F4, collagen XIX-derived peptide, released by plasmin from type XIX collagen]”, the melanoma cell migration (melanoma cell; in vitro, previously demonstrated by the authors, no ref in abstract) is given as “able to inhibit melanoma cell migration”, the “melanoma cell migration, compared with NC1(XIX) domain” value (melanoma cell; ref [24]) is given as “reproduced the whole NC1(XIX) domain effect on melanoma cell migration” and the “cancer progression in mouse melanoma model” value (mouse melanoma model) is given as “cancer progression in a mouse melanoma model”. For the same sequence, the “decrease of the number of nodes vs control” value (HUVEC; [1]) was 77%, the “decrease of the number of segments vs control” value (HUVEC; [1]) was 52% and the “decrease of the total length of capillary tubes vs control” value (HUVEC; [1]) was 49%. For the same sequence, the “inhibition of capillary network, F4 compared with NC1(XIX)” value (HUVEC; 40 µM, 8 h, HUVEC on Matrigel) was “stronger inhibition of the number of nodes, segments and of the total length of capillary network than NC1(XIX) peptide”, the “inhibition of pseudo-tube formation” value (HUVEC; 40 µM, 8 h, HUVEC on Matrigel, compared to control) was “strongly inhibited pseudo-tube formation” and the “inhibition of VEGF-induced pseudo-tube formation” value (HUVEC; endothelial cells on Matrigel (abstract)) was “inhibited VEGF-induced pseudo-tube formation”. For the same sequence, the “anti-angiogenic effect on pseudo-tube formation, F4 compared with NC1(XIX) (discussion)” value (HUVEC; in vitro) was “even greater than the whole NC1(XIX) domain” and the “competition with biotinylated-F4 binding to α5β1” value (α5β1 integrin) was “decreased consequently”.
